Results reported in publication PMC7747594, “Protease-activated receptor-2 ligands reveal orthosteric and allosteric mechanisms of receptor inhibition” (Communications Biology, 2020).
Where “and” joins values, the source holds several entries; their conditions need not be identical. Identical values can stand only once. Entries after “also recorded” stand apart in the source; their conditions may differ.

Experiments:
Format in all cases: cell-based
hPAR2 [1] = target: T1, hPAR2 (Homo sapiens, UniProt P55085); assay: IP1 HTRF assay, inhibition of SLIGRL-NH2 in 1321N1-hPAR2 cells
T1 sequence (P55085 26-397): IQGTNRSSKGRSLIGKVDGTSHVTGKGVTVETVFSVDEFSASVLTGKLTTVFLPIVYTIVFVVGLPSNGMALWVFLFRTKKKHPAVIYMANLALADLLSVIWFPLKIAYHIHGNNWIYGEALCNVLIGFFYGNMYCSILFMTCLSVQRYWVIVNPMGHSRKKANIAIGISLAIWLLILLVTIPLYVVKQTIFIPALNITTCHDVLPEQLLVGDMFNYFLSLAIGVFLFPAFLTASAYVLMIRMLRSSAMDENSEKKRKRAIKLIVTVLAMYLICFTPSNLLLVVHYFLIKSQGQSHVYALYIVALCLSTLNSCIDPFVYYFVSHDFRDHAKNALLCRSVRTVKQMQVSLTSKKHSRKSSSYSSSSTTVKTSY
Procedure: Inhibition of PAR2-induced inositol-1-phosphate (IP1) production was measured in 1321N1-hPAR2 cells using IP-One Gq HTRF assay kit (Cisbio). […] Next, EC80 of SLIGRL-NH2 (70 µM) supplemented with 50 mM LiCl was added and incubated for 60 min at 37 °C. Detection of IP1 production was performed according to the manufacturer’s protocol and HTRF was measured using PHERAstar (BMG LabTech). Data were normalised to [IP1] using a standard curve.
(§1) Binding data were analysed using the One site – Fit Ki model in GraphPad Prism 8 (GraphPad Software) to determine binding affinity. Pharmacology in vitro potency data was analysed with a 4-parameter logistic fit using the equation y = Bottom + (Top − Bottom)/[…] where y is the response, x is the 10-logarithm of the drug concentration, Bottom is no response and Top is full response in GraphPad Prism 8 or Genedata Screener (Genedata). pEC50 and pIC50 data are presented as mean ± standard error of the mean (s.e.m.) derived from the number of independent experiments stated. Schild slope analysis was calculated using Graphpad Prism 8 Gaddum/Schild EC50 global fitting (shared model parameters between all data sets) competitive model. […] Schild slope quantifies the shifts in agonist response in the presence of antagonist, a Schild slope of 1 indicates the antagonist is competitive and extra-sum-of-squares F-test (p < 0.05) was used to compare the calculated Schild slope against a hypothetical Schild slope of 1. […] The relative activity was calculated using (EmaxEC50’)/(Emax’EC50) with the Hill slope help constant at 1. EC50’ and Emax’ denote the EC50 and Emax in the absence of allosteric modulator, while EC50 and Emax denote those measured in the presence of allosteric modulator. When the Hill slope = 1, the relative activity plot approaches an asymptote corresponding to the estimate of the γ value.

hPAR2 [2] = target: T1, hPAR2; assay: Ca^2+ flux assay, agonist mode, 1321N1-hPAR2 cells; parameters: Ca^2+ mobilisation tested as agonist, Fig 1c source data / Ca2+ response (Fig 2c), individual replicate values: unit not given here; conditions: for Ca^2+ mobilisation tested as agonist, Fig 1c source data: log[compound], individual data points
Procedure: (§2) Cells were loaded with Fluo-8 NW calcium dye (AAT Bioquest) for 30 min at 37 °C before compounds in Hank’s balanced salt solution (HBSS, ThermoFisher Scientific) with 20 mM HEPES (ThermoFisher Scientific), 0.1% bovine serum albumin (BSA, Sigma) and 0.5% DMSO were added and simultaneously evaluated for changes in intracellular [Ca^2+] using FLIPR TETRA (Molecular Devices) to detect agonism. For each concentration, the difference between the maximum peak Ca^2+ response and baseline response is reported. […] Antagonism experiments were also carried out on 1321N1-PAR2[WT], 1321N1-PAR2[F154A], and 1321N1-PAR2[G157C] as described. Experiments with trypsin in 1321N1-hPAR2 cells were performed in the presence of 1 µM Vorapaxar (Chemtronica) to remove any interference of PAR1 activity. […] Antagonism experiments for CHO-hPAR2 and HT-29 cells were performed in 96-well plates at 30,000 cells/well. Cells were loaded with Fluo-3 AM calcium dye (Sigma-Aldrich) for 60 min at 37 °C in HBSS with 1% FBS, 0.2% pluronic acid, 20 mM HEPES and 2.5 mM probenecid prior to the addition of antagonist. The antagonist was pre-incubated for 60 min at 37 °C followed by the addition of bovine trypsin (30 nM) at EC80. Intracellular [Ca^2+] flux was measured using FLIPR TETRA (Molecular Devices) and the difference between the maximum peak Ca^2+ response and baseline response is reported.
as §1

hPAR2 [3] = target: T1, hPAR2; assay: Ca^2+ flux assay, inhibition of trypsin activation in 1321N1-hPAR2 cells (with 1 µM Vorapaxar); conditions: for IC50: trypsin
hPAR2 [4] = target: T1, hPAR2; assay: Ca^2+ flux assay (FLIPR), inhibition of SLIGRL-NH2 activation in 1321N1-hPAR2 cells
Procedure: as §2, §1

hPAR2 [5] = target: T1, hPAR2; assay: pERK1/2 HTRF assay, inhibition of SLIGRL-NH2 in U2OS-hPAR2 cells
Procedure: Phosphorylation of ERK1/2 was measured in U2OS-hPAR2 cells using Phospho-ERK1/2 (Thr202/Tyr204) assay kit (64ERKPEH Cisbio) and the 2 plate manufacturer’s protocol with the following modifications. Cells were seeded in McCoy’s 5A media containing 10% FBS at 15,000 cells per well in 384-well plates and incubated overnight at 37 °C, 5% CO2. Antagonist compounds (30 µM–1 nM) were incubated with the cells for 30 min prior to the addition of agonist SLIGRL-NH2 (10 µM) at EC80 and further incubation for 5 min at 37 °C. The supernatant was removed from the wells and lysis buffer was added to the cells and incubated with shaking at room temperature for 30 min. The cell lysate was transferred into a small-volume 384-well plate containing detection antibodies and incubated for 4 h at room temperature in the dark. Plates were read for HTRF signal on PHERAstar (BMG LabTech). In addition, phosphorylation of ERK1/2 was measured in CHO-hPAR2 using AlphaLISA SureFire Ultra pERK1/2 (Thr202/Tyr204) (Perkin Elmer). Cells were seeded at a density of 2000 cells per well in a 384-well proxiplate and incubated overnight. […] After incubation, cell lysis buffer was added with shaking for 30 min. Antibodies and beads were added and incubated for 4 h at room temperature. AlphaLISA signal was measured using a PHERAstar (BMG LabTech).
as §1

C[C@@H](C1CCCCC1)n1c(-c2cc3c(cc2Br)OCO3)nc2cc(C(=O)Nc3ccc(C#N)cc3)ccc21 [AZ3451]
IC50 (hPAR2 [1]; SLIGRL-NH2, 1321N1-hPAR2 cells, mean ± s.e.m., read-out: IP1 (hPAR2) pIC50 (converted)): 0.0224 µM
remaining activity at 0.1001 µM (hPAR2 [1]; log[compound], M -6.99957, individual data points, read-out: SLIGRL-NH2 IP1 formation, antagonist response, Fig 1d source data): 15.9%
remaining activity at 0.03164 µM (hPAR2 [1]; log[compound], M -7.49976, individual data points, read-out: SLIGRL-NH2 IP1 formation, antagonist response, Fig 1d source data): 43.6%
remaining activity at 0.01001 µM (hPAR2 [1]; log[compound], M -7.99957, individual data points, read-out: SLIGRL-NH2 IP1 formation, antagonist response, Fig 1d source data): 71.9%
remaining activity at 0.003165 µM (hPAR2 [1]; log[compound], M -8.49963, individual data points, read-out: SLIGRL-NH2 IP1 formation, antagonist response, Fig 1d source data): 100%
Ca^2+ mobilisation tested as agonist, Fig 1c source data (hPAR2 [2]; M -4.38018): 2.619 and -1.693 and 12.8149 and 8.844 and 5.039
Ca^2+ mobilisation tested as agonist, Fig 1c source data (hPAR2 [2]; M -4.88008): 6.334 and 5.142 and -5.002 and 2.343 and 2.365
Ca^2+ mobilisation tested as agonist, Fig 1c source data (hPAR2 [2]; M -5.38018): 7.004 and 3.992 and 6.097 and 3.93 and 1.406
Ca^2+ mobilisation tested as agonist, Fig 1c source data (hPAR2 [2]; M -5.88008): 0.5481 and 1.501 and 3.614 and 4.082 and 2.434
Ca^2+ mobilisation tested as agonist, Fig 1c source data (hPAR2 [2]; M -6.38007): 1.705 and 0.03194 and -3.0303 and 2.1164 and 2.6397
Ca^2+ mobilisation tested as agonist, Fig 1c source data (hPAR2 [2]; M -6.88008): 1.523 and 0.2236 and 5.2939 and 1.134 and 0.3771
Ca^2+ mobilisation tested as agonist, Fig 1c source data (hPAR2 [2]; M -7.37997): 1.949 and 4.9505 and 1.716 and -0.3779 and 3.12
Ca^2+ mobilisation tested as agonist, Fig 1c source data (hPAR2 [2]; M -7.88008): 3.289 and 0.09582 and 3.3954 and 1.814 and 4.697
Ca^2+ mobilisation tested as agonist, Fig 1c source data (hPAR2 [2]; M -8.37986): 0.7917 and -0.8623 and -2.957 and 0.7559 and 2.503
Ca^2+ mobilisation tested as agonist, Fig 1c source data (hPAR2 [2]; M -8.87976): 1.34 and -1.757 and 1.643 and 4.989 and 1.8855
agonist activity (tested as agonists) (hPAR2 [2]; Ca^2+ assay and other signalling assays): no effect; also recorded: no agonist activity
shape of inhibition of trypsin-induced Ca^2+ mobilisation (hPAR2 [3]; 1321N1-hPAR2 cells, 1 µM Vorapaxar): biphasic inhibition curves
remaining activity at 0.03 µM (hPAR2 [3]; log[compound], M -7.52288, individual data points, read-out: trypsin Ca^2+ mobilisation, antagonist response, Fig 1g source data): 71.7%
remaining activity at 0.01 µM (hPAR2 [3]; log[compound], M -8, individual data points, read-out: trypsin Ca^2+ mobilisation, antagonist response, Fig 1g source data): 68%
remaining activity at 0.003 µM (hPAR2 [3]; log[compound], M -8.52288, individual data points, read-out: trypsin Ca^2+ mobilisation, antagonist response, Fig 1g source data): 73%
remaining activity at 0.001 µM (hPAR2 [3]; log[compound], M -9, individual data points, read-out: trypsin Ca^2+ mobilisation, antagonist response, Fig 1g source data): 78.8%
remaining activity at 0.0003 µM (hPAR2 [3]; log[compound], M -9.52288, individual data points, read-out: trypsin Ca^2+ mobilisation, antagonist response, Fig 1g source data): 82.9%
remaining activity at 0.0001 µM (hPAR2 [3]; log[compound], M -10, individual data points, read-out: trypsin Ca^2+ mobilisation, antagonist response, Fig 1g source data): 99.7%
IC50 (hPAR2 [3]; read-out: inhibition of trypsin activation of PAR2 signalling, biphasic, pIC50 first phase (converted)): 0.00316 µM
IC50 (hPAR2 [3]; read-out: inhibition of trypsin activation of PAR2 signalling, biphasic, pIC50 second phase (converted)): 1 µM
IC50 (hPAR2 [4]; Ca^2+ assay, earlier manuscript version quoted by reviewer, read-out: IC50): 0.0028 µM
remaining activity at 0.001319 µM (hPAR2 [4]; log[compound], M -8.87976, individual data points, read-out: SLIGRL-NH2 Ca^2+ mobilisation, antagonist response, Fig 1c source data): 77.4%
IC50 (hPAR2 [5]; SLIGRL-NH2, U2OS-hPAR2, mean ± s.e.m., read-out: pERK1/2 (hPAR2) pIC50 (converted)): 0.363 µM
remaining activity at 0.37 µM (hPAR2 [5]; log[compound], M -6.4318, individual data points, read-out: SLIGRL-NH2 phosphorylation of ERK1/2, antagonist response, Fig 1e source data): 45.7%
